Assay results: US8858917B2, “Methods for limiting spread of pulmonary infections” (priority 2002, dated 2014)
Numbered stars: 1 amine (or outer) side, 2 acyl side, 3 side chain; on linkers, the order of the positions; unused ones are H or OH. Bridge positions count the residues as written; N and C are the ends. Square brackets hold non-standard residues; d marks the D form. Peptide text beside a SMILES is read from it. X1 = CC(C)CCCCCCCCC[C@H](CC(=O)[*:1])O[*:2]

Experiments:
HIV-1 (strain NL4-3) = settings: pretreatment of virus; cited from earlier work
HSV-1 and HSV-2 strains = settings: cultured cells; cited from earlier work
NIH 3T3 fibroblasts = settings: 30% ethanol in 10% FBS DMEM for 10 seconds
[1] = system: viruses susceptible to its action; settings: medium containing 5% fetal calf serum (FCS); cited from earlier work
[2] = Dispersion / precipitation in ethanol; assay type: physicochemical; settings: room temperature
Procedure: DLS can be used to measure the size and size distribution of the ethanol solutions. A suitable apparatus is an ALV DLS/SLS-5000 spectrometer/goniometer (ALV-Laser GmbH, Langen, Germany). The light source for the experiments is an Argon Ion laser of wavelength 514.5 nm (Coherent, Calif.). Light scattered by the sample is detected at an angle of 90° from the transmitted beam, where the effects of reflection are minimized. The sample cell is placed in a toluene bath maintained at a temperature of 25° C.

Which “infectivity of HIV-1 to 1G5 cells after pretreatment” value (HIV-1 (strain NL4-3)) does the source give for `CCCCCCCCCCCCOS(=O)(=O)[O-].[Na+]` [SLS, sodium lauryl sulfate] here?
Its value is “reduced its infectivity”.

And the “inhibition of infectivities of various HSV-1 and HSV-2 strains” value (HSV-1 and HSV-2 strains)?
Its value is “potent inhibitors”.

For `CCO` [ethanol], which “cell death after exposure (CMFDA staining)” value (NIH 3T3 fibroblasts) is on record?
The value was “insufficient to cause cell death”.

Which “concentration at which active” value [1] does the source give for `CC(C)CCCCCCCCC[C@@H]1CC(=O)N[C@@H](CCC(=O)O)C(=O)N[C@@H](CC(C)C)C(=O)N[C@H](CC(C)C)C(=O)N[C@@H](C(C)C)C(=O)N[C@@H](CC(=O)O)C(=O)N[C@H](CC(C)C)C(=O)N[C@@H](CC(C)C)C(=O)O1` [surfactin] (EL[dL]VD[dL]L; linker N-C via X1) here?
Its value is 25 µM.

Which “concentration successfully dispersed in ethanol before sedimentation of aggregates” value [2] does the source give for `CCCCCCCCCCCCCCCC(=O)OC[C@H](COP(=O)([O-])OCC[N+](C)(C)C)OC(=O)CCCCCCCCCCCCCCC` [DPPC, dipalmitoyl phosphatidyl choline] here?
The value was “up to 100 mg/mL”.
